Reference: patent publication US12240862B2, “Inhibitors of peptidylarginine deiminases” (Gilead Sciences, Inc., priority 2020, dated 2025)

Molecular target: T1, human PAD4 (Homo sapiens, UniProt Q9UM07)
T1 construct: human PAD4 (NM_012387), A2P663, was PCR amplified; His-SUMO (N, cleaved yes); made in house; host or cells: E. coli BL21(DE3)
Assay: In vitro PAD4 BAEE biochemical assay
Conditions: human PAD4, BAEE substrate; 5 nM PAD4, 2 mM calcium chloride, 3 mM BAEE; geometric mean of multiple experiments
How it was run: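 Ammonia generated from BAEE serves as the readout, measured by o-phthalaldehyde after EDTA termination. Final conditions: 5 nM human PAD4 (SUMO tag cleaved), 2 mM CaCl2, 3 mM BAEE, pH 7.6 MOPS buffer, 25 °C for 2 h following a 30-min compound preincubation.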

T1 sequence (Q9UM07 2-663): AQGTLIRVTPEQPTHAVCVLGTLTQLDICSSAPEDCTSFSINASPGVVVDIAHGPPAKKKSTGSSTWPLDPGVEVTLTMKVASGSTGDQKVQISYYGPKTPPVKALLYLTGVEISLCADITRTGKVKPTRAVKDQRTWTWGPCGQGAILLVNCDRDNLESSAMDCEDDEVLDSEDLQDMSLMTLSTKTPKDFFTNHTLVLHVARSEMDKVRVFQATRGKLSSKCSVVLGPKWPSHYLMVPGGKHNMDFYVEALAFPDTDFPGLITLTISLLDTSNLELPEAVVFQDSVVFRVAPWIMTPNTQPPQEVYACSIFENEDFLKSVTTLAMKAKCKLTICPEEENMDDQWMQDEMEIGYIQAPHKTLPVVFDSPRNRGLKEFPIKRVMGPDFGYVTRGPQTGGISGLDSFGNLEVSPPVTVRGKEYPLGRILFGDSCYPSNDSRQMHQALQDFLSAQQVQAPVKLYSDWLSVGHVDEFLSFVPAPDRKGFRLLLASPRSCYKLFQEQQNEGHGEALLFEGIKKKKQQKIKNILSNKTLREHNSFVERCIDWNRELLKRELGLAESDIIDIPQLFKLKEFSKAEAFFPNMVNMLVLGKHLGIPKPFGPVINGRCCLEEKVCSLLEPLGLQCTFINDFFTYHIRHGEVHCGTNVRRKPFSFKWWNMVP

| IC50 | SMILES |
| --- | --- |
| 44.2 nM | COc1cc(C(=O)N2[C@H]3CC[C@@H]2[C@H](N)C3)cc2nc(-c3cc4ccc([C@@H](C)NC(=O)N5CC[C@H](CCO)C5)nc4n3CC3CC3)c(C)n12 [Example 215, (3~{R})-~{N}-[(1~{R})-1-[2-[7-[(1~{R},2~{R}, 4~{S})-2-amino-7-azabicyclo[2.2.1]heptane-7-carbonyl]-5-methoxy-3-methylimidazo [1,2-a]pyridin-2-yl]-1-(cyclopropylmethyl)pyrrolo [2,3-b]pyridin-6-yl]ethyl]-3-(2-hydroxyethyl)pyrrolidine-1-carboxamide] |
| 754 nM | COc1cc(C(=O)N2[C@@H]3CC[C@@H](N)[C@H]2CC3)cc2nc(-c3cc4ccc(N(C(F)F)S(C)(=O)=O)nc4n3CC3CC3)c(CC3CC3)n12 [Example 403, ~{N}-[2-[7-[(1~{R},2~{R}, 5~{R})-2-amino-8-azabicyclo[3.2.1]octane-8-carbonyl]-3-(cyclopropylmethyl)-5-methoxyimidazo [1,2-a]pyridin-2-yl]-1-(cyclopropylmethyl)pyrrolo [2,3-b]pyridin-6-yl]-~{N}-(difluoromethyl) methanesulfonamide] |
| 101 nM | COc1cc(C(=O)N2[C@H]3CC[C@@H]2[C@H](N)C3)cc2nc(-c3cc4ccc(C(C)CC(=O)N5CC(F)(F)C5)nc4n3CC3CC3)c(C)n12 (stereo partly drawn) [Example 519, 3-[2-[7-[(1~{R},2~{R}, 4~{S})-2-amino-7-azabicyclo[2.2.1]heptane-7-carbonyl]-5-methoxy-3-methylimidazo[1,2-a]pyridin-2-yl]-1-(cyclopropylmethyl)pyrrolo[2,3-b]pyridin-6-yl]-1-(3,3-difluoroazetidin-1-yl) butan-1-one] |
| 84.5 nM | CCc1ccc2cc(-c3nc4cc(C(=O)N5[C@H]6CC[C@@H]5[C@H](N)C6)cc(OC)n4c3C)n(CC3CC3)c2n1 [Example 584, [(1~{R},2~{R},4~{S})-2-amino-7-azabicyclo [2.2.1]heptan-7-yl]-[2-[1-(cyclopropylmethyl)-6-ethylpyrrolo[2,3-b]pyridin-2-yl]-5-methoxy-3-methylimidazo[1,2-a]pyridin-7-yl]methanone] |
| 30.9 nM | COc1cc(C(=O)N2[C@H]3CC[C@@H]2[C@H](N)C3)cc2nc(-c3cc4ccc([C@@H](C)NC(=O)c5ccnc(Cl)c5)nc4n3CC3CC3)c(C)n12 [Example 51] |
| 79 nM | COc1cc(C(=O)N2[C@H]3CC[C@@H]2[C@H](N)C3)cc2nc(-c3cc4ccc([C@@H](C)NC(=O)c5ccc(C#N)cc5)nc4n3CC3CC3)c(C)n12 [Example 123, ~{N}-[(1~{R})-1-[2-[7-[(1~{R},2~{R},4~{S})-2-amino-7-azabicyclo[2.2.1]heptane-7-carbonyl]-5-methoxy-3-methylimidazo [1,2-a]pyridin-2-yl]-1-(cyclopropylmethyl)pyrrolo [2,3-b]pyridin-6-yl]ethyl]-4-cyanobenzamide] |
| 10100 nM | CCC1C(N)C2CCC1N2C(=O)c1cc(OC)n2c(C)c(-c3cc4ccc(N(C(F)F)S(C)(=O)=O)nc4n3CC3CC3)nc2c1 (single isomer, unassigned) [Example 347] |
| 827 nM | CCc1ccc2cc(-c3nc4cc(C(=O)N5[C@H]6CC[C@@H]5[C@H](N)C6)cc(OC)n4c3C)n(C[C@@H]3C[C@@H]3C(F)(F)F)c2n1 [Example 501] |

| SMILES | IC50 |
| --- | --- |
| COc1cc(C(=O)N2[C@H]3CC[C@@H]2[C@H](N)C3)cc2nc(-c3cc4ccc([C@@H](C)NC(=O)CCC(=O)O)nc4n3CC3CC3)c(C)n12 [Example 163, 4-[[(1~{R})-1-[2-[7-[(1~{R},2~{R},4~{S})-2-amino-7-azabicyclo[2.2.1]heptane-7-carbonyl]-5-methoxy-3-methylimidazo [1,2-a]pyridin-2-yl]-1-(cyclopropylmethyl)pyrrolo [2,3-b]pyridin-6-yl]ethyl]amino]-4-oxobutanoic acid] | 19.1 nM |
